# According to BindingDB's records for doi:10.1124/jpet.103.064907 (Abbott Laboratories, 2004):
# Target: T1, P2X purinoceptor 3 (Homo sapiens, UniProt P56373)
# T1 sequence (P56373 whole entry): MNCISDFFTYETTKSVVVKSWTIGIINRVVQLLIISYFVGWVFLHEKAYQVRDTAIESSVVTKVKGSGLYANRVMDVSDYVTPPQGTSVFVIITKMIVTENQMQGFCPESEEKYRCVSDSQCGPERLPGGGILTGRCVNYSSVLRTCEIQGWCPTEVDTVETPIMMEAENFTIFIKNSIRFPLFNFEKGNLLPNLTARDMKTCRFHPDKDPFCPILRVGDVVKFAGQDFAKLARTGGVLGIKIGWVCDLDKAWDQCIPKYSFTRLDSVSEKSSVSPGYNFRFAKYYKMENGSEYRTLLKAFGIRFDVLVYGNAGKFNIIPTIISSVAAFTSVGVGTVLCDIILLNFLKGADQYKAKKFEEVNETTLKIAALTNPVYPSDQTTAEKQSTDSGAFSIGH
row,Structure (SMILES),Ki [nM]
1,Nc1ncnc2c1ncn2[C@@H]1O[C@H](COP(=O)(O)OP(=O)(O)S)[C@@H](O)[C@H]1O (some centres undefined) [CAS_123848],297
2,Nc1ncnc2c1ncn2[C@H]1C[C@H](O)[C@@H](COP(=O)(O)OP(=O)(O)OP(=O)(O)O)O1,180
3,Nc1c(S(=O)(=O)O)cc(Nc2ccc(Nc3nc(Cl)nc(Nc4ccccc4S(=O)(=O)O)n3)c(S(=O)(=O)O)c2)c2c1C(=O)c1ccccc1C2=O,2530
4,"Nc1ncnc2c1ncn2[C@@H]1O[C@H](COP(=O)(O)CP(=O)(O)OP(=O)(O)O)[C@@H](O)[C@H]1O [({[({[5-(6-amino-9H-purin-9-yl)-3,4-dihydroxyoxolan-2-yl]methoxy}(hydroxy)phosphoryl)methyl](hydroxy)phosphoryl}oxy)phosphonic acid]",9
5,"O=c1ccn([C@@H]2O[C@H](COP(=O)(O)OP(=O)(O)OP(=O)(O)O)[C@@H](O)[C@H]2O)c(=O)[nH]1 [({[({[5-(2,4-dioxo-1,2,3,4-tetrahydropyrimidin-1-yl)-3,4-dihydroxyoxolan-2-yl]methoxy}(hydroxy)phosphoryl)oxy](hydroxy)phosphoryl}oxy)phosphonic acid]",2610
6,"Nc1ncnc2c1ncn2[C@H]1CC[C@@H](COP(=O)(O)OP(=O)(O)OP(=O)(O)O)O1 [2',3'-Dideoxyadenosine Triphosphate (Ddatp)]",406
7,CN(C(Cc1ccc(OS(=O)(=O)c2cccc3cnccc23)cc1)C(=O)N1CCN(c2ccccc2)CC1)S(=O)(=O)c1cccc2cnccc12 (centres undefined) [KN-62],> 10000
8,Nc1ncnc2c1ncn2C1OC(COP(=O)(O)OP(=O)(O)OP(=O)(O)OP(=O)(O)OP(=O)(O)OP(=O)(O)OCC2OC(n3cnc4c(N)ncnc43)C(O)C2O)C(O)C1O (centres undefined) [NSC_123694],4.8
9,Nc1ncnc2c1ncn2[C@@H]1O[C@H](COP(=O)(O)OP(=O)(O)O)[C@@H](O)[C@H]1O [ADP],452
10,Nc1ncnc2c1ncn2C1OC(COP(=O)(O)OP(=O)(O)OP(=O)(O)OP(=O)(O)OP(=O)(O)OCC2OC(n3cnc4c(N)ncnc43)C(O)C2O)C(O)C1O (centres undefined) [NSC_440210],10.4
11,Nc1ncnc2c1ncn2[C@@H]1O[C@H](CO[P@](=O)(O)O[P@](=O)(O)OC[C@H]2O[C@@H](n3cnc4c(N)ncnc43)[C@H](O)[C@@H]2O)[C@@H](O)[C@H]1O [NSC_0],> 10000
12,"Nc1ncnc2c1ncn2[C@@H]1O[C@H](COP(=O)(O)CP(=O)(O)O)[C@@H](O)[C@H]1O [alpha, beta-methyleneadenosine 5 -diphosphate]",> 10000
13,Nc1ncnc2c1ncn2[C@@H]1O[C@H](COP(=O)(O)OP(=O)(O)OP(=O)(O)O)[C@@H](O)[C@H]1O,14.6
14,"CSc1nc(N)c2ncn([C@@H]3O[C@H](COP(=O)(O)OP(=O)(O)OP(=O)(O)O)[C@@H](O)[C@H]3O)c2n1 [ATP, 2-meS]",8.2
15,Nc1ncnc2c1ncn2C1OC(COP(=O)(O)OP(=O)(O)OP(=O)(O)OC2C(CO)OC(n3cnc4c(N)ncnc43)C2O)C(O)C1O (centres undefined) [CAS_3035419],1670
16,Nc1ncnc2c1ncn2[C@@H]1O[C@H](COP(=O)(O)OP(=O)(O)CP(=O)(O)O)[C@@H](O)[C@H]1O [adenylylmethylenediphosphonate],387
17,Nc1ncnc2c1ncn2[C@@H]1O[C@H](COP(=O)(O)OP(=O)(O)OP(=O)(O)O)[C@@H](OC(=O)c2ccc(C(=O)c3ccccc3)cc2)[C@H]1O [NSC_0],7.7
18,Nc1ncnc2c1ncn2C1OC(COP(=O)(O)OP(=O)(O)OP(O)(O)=S)C(O)C1O (centres undefined) [NSC_440317],40.3
19,Nc1ncnc2c1ncn2[C@@H]1O[C@H](COP(=O)(O)OP(=O)(O)OP(=O)(O)O)C[C@H]1O [NSC_0],47.3
